For one data set, the target named is T1, GsAlaDH (Geobacillus stearothermophilus, UniProt P17557).
T1 construct: gene ald; possible hexamer (model)
Briefly: spectrophotometric NADH change at […] nm. The format is biochemical. The settings on record: oxidative deamination, NAD+, Na2CO3-NaHCO3 pH 10.0; Table 1 heads this block 'Reductive reaction' but text assigns it to L-alanine.

Substrate in the data set “purified protein”: CC(=O)C(=O)O
The experiment in a line: purified protein. The format is biochemical, Bacillus subtilis. Conditions: reductive amination, NADH and NH4Cl, Tris-HCl pH 8.0, Table 1 heads this block 'Oxidative reaction' but text assigns it to pyruvate.

T1 sequence (P17557 whole entry): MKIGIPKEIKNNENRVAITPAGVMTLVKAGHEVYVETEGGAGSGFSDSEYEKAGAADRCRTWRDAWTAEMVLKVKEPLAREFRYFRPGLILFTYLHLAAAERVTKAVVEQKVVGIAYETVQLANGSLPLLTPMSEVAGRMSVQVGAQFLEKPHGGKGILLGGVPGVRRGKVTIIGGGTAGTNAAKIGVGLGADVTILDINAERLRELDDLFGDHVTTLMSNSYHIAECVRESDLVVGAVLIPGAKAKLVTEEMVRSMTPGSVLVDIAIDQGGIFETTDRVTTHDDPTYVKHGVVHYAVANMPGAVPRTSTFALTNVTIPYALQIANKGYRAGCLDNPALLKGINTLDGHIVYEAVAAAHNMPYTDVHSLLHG

For the molecule `C[C@H](N)C(=O)O` [L-alanine], the Michaelis-Menten constant (Km) on GsAlaDH was 810 ± 250 µM.

B1: BsAlaDH (Bacillus subtilis subsp. subtilis str. 168) (protein)
chain: MIIGVPKEIKNNENRVALTPGGVSQLISNGHRVLVETGAGLGSGFENEAYESAGAEIIADPKQVWDAEMVMKVKEPLPEEYVYFRKGLVLFTYLHLAAEPELAQALKDKGVTAIAYETVSEGRTLPLLTPMSEVAGRMAAQIGAQFLEKPKGGKGILLAGVPGVSRGKVTIIGGGVVGTNAAKMAVGLGADVTIIDLNADRLRQLDDIFGHQIKTLISNPVNIADAVAEADLLICAVLIPGAKAPTLVTEEMVKQMKPGSVIVDVAIDQGGIVETVDHITTHDQPTYEKHGVVHYAVANMPGAVPRTSTIALTNVTVPYALQIANKGAVKALADNTALRAGLNTANGHVTYEAVARDLGYEYVPAEKALQDESSVAGA
notes: primers imply N-term MIIGVP, C-term SVAGA; about 45-55 kDa; possible hexamer (model)
As for B1, the Km in “purified protein” stood at 70 ± 30 µM.

The values above are taken from PMC10401832 (Biotechnology for Biofuels and Bioproducts, 2023).
